test system: HA‐SlCaM3/4/5; type: binding, tomato (Solanum lycopersicum)

Compound | effect on GFP-SFI5/HA-SlCaM3/4/5 association
LaCl3 | significantly inhibited by the presence of CaM antagonist and Ca^2+ channel blockers
NCCCCCCNS(=O)(=O)c1cccc2c(Cl)cccc12 [Peptide W7, N‐(6‐aminohexyl)‐5‐chloro‐1‐naphthalene‐sulphonamide] | significantly inhibited by the presence of CaM antagonist and Ca^2+ channel blockers
EDTA | significantly inhibited by the presence of CaM antagonist and Ca^2+ channel blockers
